We go through one compound from patent US9040673B2, “Synthesis and identification of novel RSK-specific inhibitors” (University of Virginia Patent Foundation, priority 2009, dated 2015).

Experiment [1] has as its system HUVEC cells. In words: VEGF-induced capillary network formation in HUVEC cells. It counts as cell-based, human. The settings on record: 60 μM, 10 ng/ml VEGF, 20 hours. How it is done:
Interfering with tube formation is a characteristic common to anti-angiogenic treatments. HUVEC cells were seeded at a density of 1×10^5 cells per well in 24-well culture dishes coated in growth factor-reduced Matrigel (BD Biosciences). […] The cells were incubated at 37° C. for 20 hours. Images of the cells were captured for analysis of the capillary-like network.

Experiment [2] relates to MCF-7 cells. Briefly: MCF-7 cell proliferation (CellTiter-Glo cell viability). The experiment is classed as cell-based, human.
The test system of experiment [3] is RSK activity (eEF2 phosphorylation). Briefly: eEF2 phosphorylation in J774A.1 macrophages. It counts as cell-based, murine. The settings on record: J774A.1 cells. An excerpt:
The translocation step in mRNA translation is mediated by eEF2. […] This phosphorylation is produced by a highly specific kinase, EF2 kinase (EF2K). RSK phosphorylates and inactivates EF2K in response to mitogenic stimulations, which leads to a decrease in eEF2 phosphorylation (Wang, et al. Embo J 20:4370-9). Under conditions in which RSK activity is low, as during serum deprivation, eEF2 is phosphorylated by the active EF2K. However, stimulation of RSK activity by mitogens such as phorbol dibutyrate (PDB) results in reduced phosphorylation of eEF2 due to inactivation of EF2K by RSK. Therefore, the phosphorylation state of eEF2 is an indicator of RSK activity. […] The levels of total eEF2 were not altered by any of the treatments.

Experiment [4] has as its system J774A.1 cells. In words: LPS-stimulated factor expression in J774A.1 cells (immunoblot). It counts as cell-based, murine. The settings on record: 60 μM, 1 μg/ml LPS, 24 hours. An excerpt: FIGS. 2A & 2B Analysis of LPS stimulated cytokine expression. […] Reactions were terminated with 2×-SDS lysis buffer at indicated time points and the lysates were immunoblotted.
FIGS. 3A & 3B RSK inhibition abrogates LPS-induced iNOS expression. […] Twenty-four hours after treatment, reactions were terminated with 2×-SDS lysis buffer and the lysates were immunoblotted.
LPS activation of macrophages results in secretion of factors that stimulate the innate immune system. […] Twenty-four hours after LPS treatment the cells were lysed as previously described (Traish, et al., 1998. J. Biol. Chem. 273:13317-13323) in preparation for immunoblot analysis. Expression of the pro-inflammatory factors, TNFα, IL-1b, the anti-inflammatory factor, IL-10 and inducible nitric oxide synthase was examined by immunoblot of the cell lysates.
Background: A western blot detects proteins with antibodies after separation by electrophoresis.

Experiment [5] concerns HUVEC cells. Briefly: HUVEC cell growth. It counts as cell-based, human.
For experiment [6], the system named is VCAM. In words: LPS-induced VCAM expression in HUVEC cells. It counts as cell-based, human. The settings on record: 1 μg/ml LPS, 24 hours. An excerpt: Twenty-four hours after LPS treatment, the cells were harvested with SDS lysis buffer in preparation for SDS-PAGE and immunoblot analysis. Lysates were normalized with regard to protein concentration. Equivalent loading was confirmed by use of an anti-Ran immunoblot.

Experiment [7] relates to p140, a RSK substrate. In words: PDB-induced p140 phosphorylation in MCF-7 cells (immunoblot). The settings on record: 100 μM, 3 hr pre-incubation, 500 nM PDB 30 min. The experiment is classed as cell-based, human. As to the method:
To determine whether SL0101-1 inhibits RSK in intact cells, phosphorylation of p140, a RSK substrate of unknown function, was examined in a human breast cancer cell line, MCF-7. MCF-7 and MCF-10A cells were pre-incubated with vehicle, 50 μM U0126 or the indicated concentration of SL0101-1 for 3 hr (FIG. 8D). Cells were treated with 500 nM PDB for 30 min prior to lysis. Protein concentration of lysates was measured and lysates were electrophoresed, transferred and immunoblotted. […] Pre-incubation of cells with 100 μM SL0101-1 abrogates phorbol dibutyrate (PDB)-induced p140 phosphorylation as does 50 μM U0126, a MEK inhibitor.
(§1) Cell Culture. For proliferation studies cells were seeded at 2500 to 5000 cells per well in 96 well tissue culture plates in the appropriate medium as described by American Type Culture Collection. After 24 hr, the medium was replaced with medium containing compound or vehicle as indicated. Cell viability was measured at indicated time points using CellTiter-Glo™ assay reagent (Promega) according to manufacturer's protocol. For in vivo inhibition studies, cells were seeded at 2.5×10^5 cells/well in 12 well cell culture clusters. After 24 hr, the cells were serum starved for 24 hr then incubated with compound or vehicle for 3 hr prior to a 30 min PDB stimulation. Cells were lysed as previously described (J. Biol. Chem. 273, 13317-13323 (1998)). […]

Experiment [8] deals with pp 140, a known RSK substrate. Briefly: pp 140 phosphorylation in HUVEC cells. The experiment is classed as cell-based, human. The settings on record: 60 μM, 2 hr; with or without 500 nM phorbol dibutyrate. As to the method:
HUVEC cells were seeded at a density of 3×10^5 cells per 35 mm dish and were maintained in complete growth medium. […] The cells were harvested and lysates prepared for SDS-PAGE and immunoblot analysis. The phosphorylation state of pp 140 was determined using a phosphospecific antibody generated against the phosphorylated peptide—LAS(P)TND.

Experiment [9] has as its system mouse primary peritoneal macrophages. In words: LPS-induced iNOS expression in primary peritoneal macrophages. The experiment is classed as cell-based. The settings on record: 60 μM, 1 μg/ml LPS, 24 hours.
Experiment [10] relates to LNCaP cells. In words: LNCaP cell proliferation. The experiment is classed as cell-based, human. The settings on record: 50 μM (FIG. 8B). As to the method:
FIGS. 8A-8D SL0101-1 inhibits the proliferation of cancer cells but not normal cells. […] Cell viability was measured at indicated time points. Proliferation assays were conducted using CellTiter-Glo Luminescent Cell Viability Assay (Promega), performed 44 hrs after treatment for FIGS. 8A &B and at indicated points for FIG. 8C. The data are expressed relative to time 0.
as §1, with “(1998)). The lysates were normalized for total protein, electrophoresed and immunoblotted. For cell imaging, Ha-Ras-transformed NIH/3T3 cells were seeded on LABTEK II chamber slides (Nalge) at a density of 1×10^4 cells/well. After 24 hr, fresh medium was added the indicated compounds or vehicle.” for “(1998)).”

Consider `CC(=O)O[C@@H]1[C@@H](OC(C)=O)[C@@H](O)[C@H](Oc2c(-c3ccc(O)cc3)oc3cc(O)cc(O)c3c2=O)O[C@H]1C` [SL0101, kaempferol 3-O-(3″,4″-di-O-acetyl-α-L-rhamnopyranoside)], for which the capillary-like network formation result in experiment [1] is given as “indistinguishable from those treated with SU1498”. The “inhibition of MCF-7 cell growth” value in experiment [2] (50 uM) is listed as “similarly effective at inhibiting MCF-7 cell growth”. In addition, the “proliferation of MCF-7 cells” value in experiment [2] (50 μM (FIG. 8A)) was “inhibited proliferation”. The EC50 in experiment [2] (Homo sapiens, MCF7, read-out: EC50 of MCF-7 cell proliferation inhibition) is roughly 50 µM. Moreover, the peEF2 levels result in experiment [3] is reported as “increases peEF2 levels”. Besides, in experiment [4], the “LPS-induced iNOS expression” value is listed as “abrogated the induction of iNOS expression” and the “expression of TNFα, IL-1b, IL-10” value is recorded as “did not alter the expression”. Also, the “rate of HUVEC cell growth” value in experiment [5] is reported as “does not alter the rate of HUVEC cell growth”. For the same compound, the “expression of VCAM” value in experiment [6] is “reduced expression of the angiogenesis marker VCAM in a dose-dependent manner”. The “PDB-induced p140 phosphorylation” value in experiment [7] is given as “abrogates”. Also, the “phosphorylation of pp 140” value in experiment [8] is listed as “reduced the phosphorylation of pp 140”. For the same compound, the “LPS-induced iNOS expression” value in experiment [9] is recorded as “abrogates iNOS expression”. In addition, the “proliferation of LNCaP cells” value in experiment [10] is given as “completely inhibits the proliferation”.
